Among the data in ChEMBL document CHEMBL4371020, “Synthesis and biological evaluation of 1H-pyrrolo[2,3-d]pyrimidine-1,2,3-triazole derivatives as novel anti-tubercular agents” (2019) are MIC values, retold here.

Values after ≈ are worked out from the molar mass of the structure shown. Bounds are passed on as bounds.

By MIC is commonly meant the smallest concentration in the dilution series that meets the test's criterion for growth inhibition. A high value points to a need for much substance.

For this experiment, the system named is Mycobacterium tuberculosis. The experiment can be described thus: Antimicrobial activity against Mycobacterium tuberculosis H37Rv after 7 days by microplate alamar blue assay. Particulars: 168 h. It is filed as functional.
In the case of `c1ccc(-c2cc(Cn3cc(Cn4ccc5cncnc54)nn3)on2)cc1`, 0.78 µg/mL (≈ 2.18 µM) was the least that counted as inhibitory (MIC).

Compound `Fc1ccc(-c2cc(Cn3cc(Cn4ccc5cncnc54)nn3)on2)cc1` displayed an MIC of 0.78 µg/mL (≈ 2.08 µM). In the case of `c1ccc(Sc2ccccc2-n2cc(Cn3ccc4cncnc43)nn2)cc1` it was 6.25 µg/mL (≈ 16.3 µM).

With `Fc1ccc(Cn2cc(Cn3ccc4cncnc43)nn2)cc1`, the MIC was greater than 25 µg/mL.

On to `O=[N+]([O-])c1ccc(Cn2cc(Cn3ccc4cncnc43)nn2)cc1`, for which the minimum inhibitory concentration (MIC) is greater than 25 µg/mL.

As for `Brc1ccccc1Cn1cc(Cn2ccc3cncnc32)nn1`, the MIC was greater than 25 µg/mL. With `COc1cccc(-n2cc(Cn3ccc4cncnc43)nn2)c1[N+](=O)[O-]` the figure was 25 µg/mL (≈ 71.2 µM); with `Fc1ccc(Oc2ccc(Cn3cc(Cn4ccc5cncnc54)nn3)cc2)cc1`, 3.12 µg/mL (≈ 7.79 µM); with `O=c1oc2ccccc2cc1-n1cc(Cn2ccc3cncnc32)nn1`, 3.12 µg/mL (≈ 9.06 µM). In the case of `COc1ccc(Cn2cc(Cn3ccc4cncnc43)nn2)cc1` it was greater than 25 µg/mL; in that of `Oc1ccccc1-n1cc(Cn2ccc3cncnc32)nn1`, 6.25 µg/mL (≈ 21.4 µM); in that of `CCOC(=O)/C=C/Cn1cc(Cn2ccc3cncnc32)nn1`, greater than 25 µg/mL.

In the case of `c1ccc(Cn2cc(Cn3ccc4cncnc43)nn2)cc1`, the MIC is greater than 25 µg/mL. In the case of `Fc1ccccc1Cn1cc(Cn2ccc3cncnc32)nn1` it was greater than 25 µg/mL. With `Clc1ccc(Cn2cc(Cn3ccc4cncnc43)nn2)cc1` the figure was 3.12 µg/mL (≈ 9.61 µM); with `C=CCn1cc(Cn2ccc3cncnc32)nn1`, 6.25 µg/mL (≈ 26 µM). With `O=[N+]([O-])c1ccc(-n2cc(Cn3ccc4cncnc43)nn2)cc1` the figure was greater than 25 µg/mL.

`Cc1onc(-c2ccccc2)c1Cn1cc(Cn2ccc3cncnc32)nn1` showed an MIC of 6.25 µg/mL (≈ 16.8 µM). In the case of `Clc1ccc(Oc2ccccc2)cc1-n1cc(Cn2ccc3cncnc32)nn1` it was 6.25 µg/mL (≈ 15.5 µM); in that of `COC(=O)CCn1cc(Cn2ccc3cncnc32)nn1`, 1.56 µg/mL (≈ 5.45 µM). With `c1ccc(-c2cc(Cn3cc(Cn4ccc5cncnc54)nn3)cc(-c3ccccc3)n2)cc1` the figure was 6.25 µg/mL (≈ 14.1 µM); with `Fc1cccc(-n2cc(Cn3ccc4cncnc43)nn2)c1`, greater than 25 µg/mL; with `Brc1ccc(Cn2cc(Cn3ccc4cncnc43)nn2)cc1`, greater than 25 µg/mL.

`Clc1ccc(-n2cc(Cn3ccc4cncnc43)nn2)cc1`: the MIC turned out to be 25 µg/mL (≈ 80.5 µM). In the case of `O=C(O)c1cn(C2CC2)c2cc(N3CCNCC3)c(F)cc2c1=O` [CIPROFLOXACIN] it was 1.56 µg/mL (≈ 4.71 µM). With `CC[C@@H](CO)NCCN[C@@H](CC)CO` [ETHAMBUTOL] the figure was 1.56 µg/mL (≈ 7.64 µM); with `NNC(=O)c1ccncc1` [ISONIAZID], 0.1 µg/mL (≈ 0.729 µM). In the case of `CO[C@H]1/C=C/O[C@@]2(C)Oc3c(C)c(O)c4c(O)c(c(/C=N/N5CCN(C)CC5)c(O)c4c3C2=O)NC(=O)/C(C)=C\C=C\[C@H](C)[C@H](O)[C@@H](C)[C@@H](O)[C@@H](C)[C@H](OC(C)=O)[C@@H]1C` [RIFAMPIN] it was 0.2 µg/mL (≈ 0.243 µM).
